Experimental data taken from the supplement of paper PMC10307832.

What was measured:
Experiment in all cases: relative viability (nuclei count vs DMSO), 5 days (fraction); higher = more cells survive
Idelalisib + Bortezomib = compound: CC[C@H](Nc1ncnc2[nH]cnc12)c1nc2cccc(F)c2c(=O)n1-c1ccccc1 [Idelalisib] + CC(C)C[C@H](NC(=O)[C@H](Cc1ccccc1)NC(=O)c1cnccn1)B(O)O [Bortezomib] (partner 0.002 µM)
Outline: (§1)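 For relative viability, nuclei counts in treated wells were divided by those in vehicle wells. Lung cancer cell lines had been pin-tool dosed in 1536-well plates the day after seeding and cultured for 5 days, then fixed and stained in one step (final 0.05% Triton X-100, 1% formaldehyde, 1 ug/ml Hoechst) and imaged at 4×. Doses were one drug alone or a fixed anchor-drug dose plus five library-drug doses (not always all listed) in √10 steps, and values are duplicate-plate medians.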

Idelalisib + Navitoclax = compound: CC[C@H](Nc1ncnc2[nH]cnc12)c1nc2cccc(F)c2c(=O)n1-c1ccccc1 [Idelalisib] + CC1(C)CCC(c2ccc(Cl)cc2)=C(CN2CCN(c3ccc(C(=O)NS(=O)(=O)c4ccc(N[C@H](CCN5CCOCC5)CSc5ccccc5)c(S(=O)(=O)C(F)(F)F)c4)cc3)CC2)C1 [Navitoclax] (partner 0.5 µM)
Outline: as §1

Pemetrexed + Crizotinib = compound: Nc1nc2[nH]cc(CCc3ccc(C(=O)N[C@@H](CCC(=O)O)C(=O)O)cc3)c2c(=O)[nH]1 [Pemetrexed] + C[C@@H](Oc1cc(-c2cnn(C3CCNCC3)c2)cnc1N)c1c(Cl)ccc(F)c1Cl [Crizotinib] (partner 1 µM)
Outline: as §1

Idelalisib + Linsitinib = compound: CC[C@H](Nc1ncnc2[nH]cnc12)c1nc2cccc(F)c2c(=O)n1-c1ccccc1 [Idelalisib] + C[C@]1(O)C[C@@H](c2nc(-c3ccc4ccc(-c5ccccc5)nc4c3)c3c(N)nccn32)C1 [Linsitinib] (partner 1 µM)
Outline: as §1

Cell Line	relative viability (Idelalisib + Bortezomib; first compound 0.04 µM)	relative viability (Idelalisib + Bortezomib; first compound 0.1265 µM)	relative viability (Idelalisib + Bortezomib; first compound 0.4 µM)	relative viability (Idelalisib + Bortezomib; first compound 1.265 µM)	relative viability (Idelalisib + Bortezomib; first compound 4 µM)	relative viability (Idelalisib + Navitoclax; first compound 0.04 µM)	relative viability (Idelalisib + Navitoclax; first compound 0.1265 µM)	relative viability (Idelalisib + Navitoclax; first compound 0.4 µM)	relative viability (Idelalisib + Navitoclax; first compound 1.265 µM)	relative viability (Idelalisib + Navitoclax; first compound 4 µM)	relative viability (Pemetrexed + Crizotinib; first compound 0.002 µM)	relative viability (Pemetrexed + Crizotinib; first compound 0.006325 µM)	relative viability (Pemetrexed + Crizotinib; first compound 0.02 µM)	relative viability (Pemetrexed + Crizotinib; first compound 0.06325 µM)	relative viability (Pemetrexed + Crizotinib; first compound 0.2 µM)	relative viability (Idelalisib + Linsitinib; first compound 0.04 µM)	relative viability (Idelalisib + Linsitinib; first compound 0.1265 µM)	relative viability (Idelalisib + Linsitinib; first compound 0.4 µM)	relative viability (Idelalisib + Linsitinib; first compound 1.265 µM)	relative viability (Idelalisib + Linsitinib; first compound 4 µM)
HCC-366	1	1.11	1	1.03	0.931	1.11	1.11	1.01	1.01	0.97	0.49	0.404	0.701	0.586	0.476	0.619	0.598	0.444	0.578	0.253
HCC-827	1.1	0.99	1.03	1.17	1.07	1.06	1.05	1.03	1.03	0.964	0.856	1.03	0.944	0.888	0.779	0.958	0.961	0.96	0.885	0.965
HOP-62	0.72	0.796	–	0.797	0.997	1.01	1.03	1.01	1.29	1.03	0.836	0.779	0.499	0.791	0.933	1.04	1.04	–	1.07	0.884
IA-LM	0.987	0.847	0.956	0.88	0.889	0.905	0.856	1.01	1.08	0.919	0.807	0.665	0.772	0.804	0.634	0.426	0.83	0.709	0.541	0.404
LC-2-ad	1.02	0.971	0.938	1.11	0.992	0.479	0.4	0.395	0.417	0.306	0.425	0.473	0.457	0.263	0.29	0.966	0.848	0.805	0.75	0.719
LCLC-97TM1	0.357	0.76	–	0.569	0.835	0.468	0.453	–	0.335	0.337	0.263	0.352	0.404	0.338	0.224	0.209	0.184	–	0.175	0.156
LOU-NH91	0.483	0.39	0.512	0.437	0.472	0.741	0.699	0.667	0.463	0.617	0.701	0.747	0.988	0.636	0.504	0.942	0.88	0.904	0.683	0.864
LU99A	1.29	1.13	1.1	1.33	1.11	0.835	0.894	0.719	0.91	0.827	0.543	0.621	0.62	0.594	0.325	0.473	0.528	0.489	0.43	0.446
LXF-289	1.08	0.925	0.995	1.05	1.04	0.961	0.948	0.912	1.02	0.97	0.808	0.832	0.841	0.843	0.79	1	0.978	0.938	1.07	0.978
NCI-H23	1.05	0.986	0.771	1.07	0.959	0.843	0.872	0.718	0.765	0.606	0.507	0.467	0.589	0.438	0.425	0.693	0.592	0.436	0.499	0.474
NCI-H322M	1.13	1.34	1.08	1.16	1.29	1.2	1.2	1.09	1.25	1.04	0.886	0.884	1.05	0.912	0.778	0.971	0.924	0.801	0.642	0.692
NCI-H441	0.406	0.453	–	0.608	0.37	0.556	0.67	–	0.467	0.574	0.608	0.777	0.865	0.567	0.396	0.43	0.437	–	0.438	0.41
NCI-H460	0.782	1.03	1.1	1.23	1.04	1.12	1.07	1.09	1.24	1.14	0.842	0.794	1.02	0.197	0.0567	0.834	0.801	0.624	0.681	0.56
NCI-H520	0.464	0.552	0.367	0.634	0.278	0.981	0.944	0.983	1.24	0.798	0.776	0.679	1.08	0.969	0.79	0.98	0.935	0.856	0.894	0.648
NCI-H596	1	1.04	1	1.03	0.802	1.18	0.931	0.881	0.973	0.892	0.854	0.967	1.09	0.78	0.665	1.07	1.06	0.899	1.19	1.03
NCI-H647	0.998	1.13	0.813	0.905	0.737	1.17	1.1	0.981	0.837	0.745	–	0.921	1.14	0.785	0.32	0.882	1.19	0.93	0.805	0.976

Cell Line	relative viability (Idelalisib + Bortezomib; first compound 0.04 µM)	relative viability (Idelalisib + Bortezomib; first compound 0.1265 µM)	relative viability (Idelalisib + Bortezomib; first compound 0.4 µM)	relative viability (Idelalisib + Bortezomib; first compound 1.265 µM)	relative viability (Idelalisib + Bortezomib; first compound 4 µM)	relative viability (Idelalisib + Navitoclax; first compound 0.04 µM)	relative viability (Idelalisib + Navitoclax; first compound 0.1265 µM)	relative viability (Idelalisib + Navitoclax; first compound 0.4 µM)	relative viability (Idelalisib + Navitoclax; first compound 1.265 µM)	relative viability (Idelalisib + Navitoclax; first compound 4 µM)	relative viability (Pemetrexed + Crizotinib; first compound 0.002 µM)	relative viability (Pemetrexed + Crizotinib; first compound 0.006325 µM)	relative viability (Pemetrexed + Crizotinib; first compound 0.02 µM)	relative viability (Pemetrexed + Crizotinib; first compound 0.06325 µM)	relative viability (Pemetrexed + Crizotinib; first compound 0.2 µM)	relative viability (Idelalisib + Linsitinib; first compound 0.04 µM)	relative viability (Idelalisib + Linsitinib; first compound 0.1265 µM)	relative viability (Idelalisib + Linsitinib; first compound 0.4 µM)	relative viability (Idelalisib + Linsitinib; first compound 1.265 µM)	relative viability (Idelalisib + Linsitinib; first compound 4 µM)
NCI-H727	0.848	1.21	0.632	1.22	0.791	0.454	0.57	0.416	0.548	0.354	0.56	0.782	0.877	0.986	0.732	0.318	0.296	0.281	0.402	0.267
NCI-H838	0.835	0.95	0.476	1.03	0.635	1	1.14	1.07	1.05	0.977	0.83	0.814	1.03	0.935	0.415	0.926	1.01	0.891	1.01	0.8
NCI-H1299	1.03	1.03	1.02	1.09	1.03	1.04	1.01	1.07	1.12	1.08	0.962	0.942	0.98	0.881	0.927	1.03	1.07	0.978	0.959	0.928
NCI-H1355	1.26	1.29	0.987	1.23	1.17	0.982	0.947	0.701	0.774	0.667	0.933	0.964	1.13	1.06	1.07	0.893	0.789	0.599	0.701	0.596
NCI-H1437	0.567	0.532	0.452	0.833	0.37	0.956	1.13	1.08	1.17	1.11	0.948	0.854	0.965	0.586	0.281	1.05	1.09	0.974	1.02	1.05
NCI-H1651	1	0.913	0.939	1.01	1.02	0.73	1.09	1.01	1.07	0.792	0.879	0.792	0.92	0.864	0.851	0.982	0.903	0.789	0.923	0.714
NCI-H1666	1.02	0.866	0.742	0.849	0.779	0.892	0.928	0.835	0.804	0.69	1.08	0.9	0.986	0.865	0.635	0.881	0.873	0.73	0.629	0.552
NCI-H1703	0.305	0.404	0.246	0.332	0.161	1.15	1.05	0.922	1.13	0.501	0.687	0.566	0.763	0.628	0.739	1.31	0.976	0.669	1.2	0.474
NCI-H1734	0.813	1.07	0.828	0.922	0.725	0.746	0.841	0.654	0.724	0.584	0.721	0.647	0.745	0.723	0.686	0.944	0.814	0.765	0.791	0.597
NCI-H1755	0.931	0.939	0.937	1.05	0.85	0.964	0.959	0.923	0.836	0.687	0.787	0.814	0.897	0.973	0.78	1.01	0.959	0.947	0.907	0.786
NCI-H1792	0.552	0.952	0.844	0.968	0.843	0.464	0.587	0.617	0.667	0.645	0.993	0.972	0.987	0.974	0.937	0.242	0.498	0.508	0.443	0.461
NCI-H1915	0.968	1.03	0.928	1.04	0.997	0.797	0.772	0.812	0.78	0.764	0.876	0.834	0.936	0.877	0.914	1.19	1.15	1.04	1.17	1.07
NCI-H1975	0.34	0.374	0.385	0.371	0.343	1.1	1.08	1.12	1.06	0.692	–	0.879	0.987	0.806	0.438	0.98	1.03	0.882	0.937	0.772
NCI-H1993	1.14	1.22	0.852	0.976	0.771	0.844	0.971	0.762	0.912	0.75	0.877	0.878	0.894	0.879	0.982	0.824	0.673	0.662	0.756	0.66
NCI-H2009	1.02	1.07	0.995	1.14	0.991	1.11	1.17	1.19	1.22	1.18	1.01	1.04	1.01	1.06	1.04	1.22	1.28	1.11	1.16	0.887
NCI-H2023	1.11	1.09	0.681	1.03	0.871	1.05	1.02	0.994	0.945	0.939	0.632	0.616	0.685	0.607	0.377	0.662	0.556	0.515	0.547	0.273
